According to PubChem BioAssay (NCI):
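Following 48 hours of exposure in 96-well plates, responses at five concentrations were used to interpolate endpoints linearly. TGI denotes the concentration required for complete inhibition of growth.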

Experiments:
Test in all cases: NCI-60 cell line screen, 48 h
PC-3 prostate = test system: PC-3 prostate
RPMI-8226 leukemia = test system: RPMI-8226 leukemia
U251 CNS = test system: U251 CNS
HCT-15 colon = test system: HCT-15 colon
TK-10 renal = test system: TK-10 renal
OVCAR-5 ovarian = test system: OVCAR-5 ovarian
786-0 renal = test system: 786-0 renal
RXF 393 renal = test system: RXF 393 renal
SF-295 CNS = test system: SF-295 CNS
NCI-H522 lung = test system: NCI-H522 lung
COLO 205 colon = test system: COLO 205 colon
SF-539 CNS = test system: SF-539 CNS
UACC-257 melanoma = test system: UACC-257 melanoma
LOX IMVI melanoma = test system: LOX IMVI melanoma
A549 NSCLC = test system: A549 NSCLC
MOLT-4 leukemia = test system: MOLT-4 leukemia
CCRF-CEM leukemia = test system: CCRF-CEM leukemia
CAKI-1 renal = test system: CAKI-1 renal
HL-60(TB) leukemia = test system: HL-60(TB) leukemia
MDA-MB-231 breast = test system: MDA-MB-231 breast
K-562 leukemia = test system: K-562 leukemia
KM12 colon = test system: KM12 colon
T-47D breast = test system: T-47D breast
MCF7 breast = test system: MCF7 breast
A498 renal = test system: A498 renal
SW-620 colon = test system: SW-620 colon
HOP-92 NSCLC = test system: HOP-92 NSCLC
NCI-H23 lung = test system: NCI-H23 lung
HS 578T breast = test system: HS 578T breast
OVCAR-8 ovarian = test system: OVCAR-8 ovarian
ACHN renal = test system: ACHN renal
SK-MEL-5 melanoma = test system: SK-MEL-5 melanoma
M14 melanoma = test system: M14 melanoma
NCI-H226 lung = test system: NCI-H226 lung
SK-MEL-2 melanoma = test system: SK-MEL-2 melanoma
SR leukemia = test system: SR leukemia
EKVX NSCLC = test system: EKVX NSCLC
DU-145 prostate = test system: DU-145 prostate
MDA-N = test system: MDA-N
SNB-75 CNS = test system: SNB-75 CNS
SK-MEL-28 melanoma = test system: SK-MEL-28 melanoma
MDA-MB-435 = test system: MDA-MB-435
NCI-H460 lung = test system: NCI-H460 lung
HOP-62 NSCLC = test system: HOP-62 NSCLC
UACC-62 melanoma = test system: UACC-62 melanoma
SK-OV-3 ovarian = test system: SK-OV-3 ovarian
HT29 colon = test system: HT29 colon
BT-549 breast = test system: BT-549 breast
HCC-2998 colon = test system: HCC-2998 colon
HCT-116 colon = test system: HCT-116 colon
OVCAR-3 ovarian = test system: OVCAR-3 ovarian
SF-268 CNS = test system: SF-268 CNS
SN12C renal = test system: SN12C renal
NCI/ADR-RES ovarian = test system: NCI/ADR-RES ovarian
IGROV1 ovarian = test system: IGROV1 ovarian
SNB-19 CNS = test system: SNB-19 CNS
OVCAR-4 ovarian = test system: OVCAR-4 ovarian
UO-31 renal = test system: UO-31 renal
MALME-3M melanoma = test system: MALME-3M melanoma

Compound `O=c1oc2ccccc2c(O)c1C(c1cccc(C(c2c(O)c3ccccc3oc2=O)c2c(O)c3ccccc3oc2=O)c1)c1c(O)c2ccccc2oc1=O` has a TGI (PC-3 prostate) of over 100 µM, a TGI (RPMI-8226 leukemia) of 76.6 µM and a TGI (U251 CNS) of over 100 µM. For the same compound, the TGI (HCT-15 colon) was over 100 µM, the TGI (TK-10 renal) was over 100 µM and the TGI (OVCAR-5 ovarian) was over 100 µM. The TGI (786-0 renal) was 45.1 µM, the TGI (RXF 393 renal) was over 100 µM and the TGI (SF-295 CNS) was over 100 µM. It also gave a TGI (NCI-H522 lung) of 35.6 µM, a TGI (COLO 205 colon) of over 100 µM and a TGI (SF-539 CNS) of 53.9 µM. It also gave a TGI (UACC-257 melanoma) of over 100 µM, a TGI (LOX IMVI melanoma) of 60.2 µM and a TGI (A549 NSCLC) of over 100 µM. For the same compound, the TGI (MOLT-4 leukemia) was 63.3 µM, the TGI (CCRF-CEM leukemia) was 69.3 µM and the TGI (CAKI-1 renal) was 49.5 µM. The TGI (HL-60(TB) leukemia) was 45.8 µM, the TGI (MDA-MB-231 breast) was 99.3 µM and the TGI (K-562 leukemia) was 53.5 µM. For the same compound, the TGI (KM12 colon) was over 100 µM, the TGI (T-47D breast) was over 100 µM and the TGI (MCF7 breast) was 61.3 µM. The TGI (A498 renal) was over 100 µM, the TGI (SW-620 colon) was over 100 µM and the TGI (HOP-92 NSCLC) was over 100 µM. It also gave a TGI (NCI-H23 lung) of over 100 µM, a TGI (HS 578T breast) of over 100 µM and a TGI (OVCAR-8 ovarian) of over 100 µM. The TGI (ACHN renal) was over 100 µM, the TGI (SK-MEL-5 melanoma) was 95.7 µM and the TGI (M14 melanoma) was over 100 µM. It also gave a TGI (NCI-H226 lung) of over 100 µM, a TGI (SK-MEL-2 melanoma) of over 100 µM and a TGI (SR leukemia) of 58.8 µM. It also gave a TGI (EKVX NSCLC) of over 100 µM, a TGI (DU-145 prostate) of over 100 µM and a TGI (MDA-N) of over 100 µM. It also gave a TGI (SNB-75 CNS) of 41.6 µM, a TGI (SK-MEL-28 melanoma) of over 100 µM and a TGI (MDA-MB-435) of over 100 µM. It also gave a TGI (NCI-H460 lung) of over 100 µM, a TGI (HOP-62 NSCLC) of over 100 µM and a TGI (UACC-62 melanoma) of 95.7 µM. For the same compound, the TGI (SK-OV-3 ovarian) was over 100 µM, the TGI (HT29 colon) was over 100 µM and the TGI (BT-549 breast) was over 100 µM. It also gave a TGI (HCC-2998 colon) of 46.2 µM, a TGI (HCT-116 colon) of over 100 µM and a TGI (OVCAR-3 ovarian) of over 100 µM. It also gave a TGI (SF-268 CNS) of over 100 µM, a TGI (SN12C renal) of 83 µM and a TGI (NCI/ADR-RES ovarian) of over 100 µM. It also gave a TGI (IGROV1 ovarian) of over 100 µM.
With `Cc1cc2c(nn1)CCc1c-2no[n+]1[O-]` the TGI (PC-3 prostate) was over 100 µM, the TGI (RPMI-8226 leukemia) was over 100 µM and the TGI (U251 CNS) was over 100 µM. It also gave a TGI (HCT-15 colon) of over 100 µM, a TGI (TK-10 renal) of over 100 µM and a TGI (OVCAR-5 ovarian) of over 100 µM. It also gave a TGI (786-0 renal) of over 100 µM, a TGI (RXF 393 renal) of over 100 µM and a TGI (SF-295 CNS) of over 100 µM. The TGI (NCI-H522 lung) was over 100 µM, the TGI (COLO 205 colon) was over 100 µM and the TGI (SF-539 CNS) was over 100 µM. For the same compound, the TGI (UACC-257 melanoma) was over 100 µM, the TGI (LOX IMVI melanoma) was over 100 µM and the TGI (A549 NSCLC) was over 100 µM. The TGI (MOLT-4 leukemia) was over 100 µM, the TGI (CCRF-CEM leukemia) was over 100 µM and the TGI (CAKI-1 renal) was over 100 µM. For the same compound, the TGI (MDA-MB-231 breast) was over 100 µM, the TGI (K-562 leukemia) was over 100 µM and the TGI (KM12 colon) was over 100 µM. The TGI (T-47D breast) was over 100 µM, the TGI (SNB-19 CNS) was over 100 µM and the TGI (MCF7 breast) was over 100 µM. The TGI (OVCAR-4 ovarian) was over 100 µM, the TGI (SW-620 colon) was over 100 µM and the TGI (NCI-H23 lung) was over 100 µM. It also gave a TGI (HS 578T breast) of over 100 µM, a TGI (OVCAR-8 ovarian) of over 100 µM and a TGI (ACHN renal) of over 100 µM. For the same compound, the TGI (SK-MEL-5 melanoma) was over 100 µM, the TGI (UO-31 renal) was over 100 µM and the TGI (M14 melanoma) was over 100 µM. The TGI (NCI-H226 lung) was over 100 µM, the TGI (SK-MEL-2 melanoma) was over 100 µM and the TGI (SR leukemia) was over 100 µM. The TGI (EKVX NSCLC) was over 100 µM, the TGI (MDA-N) was over 100 µM and the TGI (SNB-75 CNS) was over 100 µM. For the same compound, the TGI (SK-MEL-28 melanoma) was over 100 µM, the TGI (MDA-MB-435) was over 100 µM and the TGI (NCI-H460 lung) was over 100 µM. The TGI (MALME-3M melanoma) was over 100 µM, the TGI (HOP-62 NSCLC) was over 100 µM and the TGI (UACC-62 melanoma) was over 100 µM. It also gave a TGI (SK-OV-3 ovarian) of over 100 µM, a TGI (HT29 colon) of over 100 µM and a TGI (BT-549 breast) of over 100 µM. For the same compound, the TGI (HCC-2998 colon) was over 100 µM, the TGI (HCT-116 colon) was over 100 µM and the TGI (OVCAR-3 ovarian) was over 100 µM. For the same compound, the TGI (SF-268 CNS) was over 100 µM, the TGI (SN12C renal) was over 100 µM and the TGI (NCI/ADR-RES ovarian) was over 100 µM. For the same compound, the TGI (IGROV1 ovarian) was over 100 µM.
